Values after ≈ are worked out from the molar mass of the structure shown.
Columns and labels:
Format in all cases: functional
[1] = system: Staphylococcus aureus; assay: Potency index, ratio of ciprofloxacin MIC to compound MIC for Staphylococcus aureus
[2] = system: Staphylococcus aureus; assay: Antibacterial activity against Staphylococcus aureus assessed as growth inhibition by serial dilution method
[3] = system: Klebsiella pneumoniae; assay: Antibacterial activity against Klebsiella pneumoniae assessed as growth inhibition by serial dilution method
[4] = system: Candida albicans; assay: Antifungal activity against Candida albicans assessed as growth inhibition by serial dilution method
[5] = system: Klebsiella pneumoniae; assay: Potency index, ratio of ciprofloxacin MIC to compound MIC for Klebsiella pneumoniae
[6] = system: Aspergillus flavus; assay: Antifungal activity against Aspergillus flavus assessed as growth inhibition by serial dilution method
[7] = system: Mycolicibacterium fortuitum; assay: Antimycobacterial activity against Mycobacterium fortuitum ATCC 19542 assessed as growth inhibition at 0.3125 to 5 ug/mL by resazurin assay
[8] = system: Mycobacterium tuberculosis; assay: Antimycobacterial activity against Mycobacterium tuberculosis H37Rv assessed as growth inhibition at 0.3125 to 5 ug/mL by resazurin assay
[9] = system: Mycolicibacterium smegmatis; assay: Antimycobacterial activity against Mycobacterium smegmatis ATCC 19420 assessed as growth inhibition at 0.3125 to 5 ug/mL by resazurin assay
[10] = system: Mycolicibacterium fortuitum; assay: Antimycobacterial activity against Mycobacterium fortuitum ATCC 19542 assessed as growth inhibition at 1 to 100 ug/mL by resazurin assay
[11] = system: Escherichia coli; assay: Antibacterial activity against Escherichia coli assessed as growth inhibition by serial dilution method
[12] = system: Mycolicibacterium smegmatis; assay: Antimycobacterial activity against Mycobacterium smegmatis ATCC 19420 assessed as growth inhibition at 1 to 100 ug/mL by resazurin assay
[13] = system: Rhizopus; assay: Antifungal activity against Rhizopus sp. assessed as growth inhibition by serial dilution method
[14] = system: Mycobacterium tuberculosis; assay: Antimycobacterial activity against Mycobacterium tuberculosis H37Rv assessed as growth inhibition at 1 to 100 ug/mL by resazurin assay

Compound `O=[N+]([O-])c1ccc(OCc2nc3cc(Br)ccc3n2S(=O)(=O)c2cc(F)ccc2F)cc1` has a PI [1] of 1, an MIC [2] of 4 µg/mL (≈ 7.63 µM) and an MIC [3] of 4 µg/mL (≈ 7.63 µM). For the same compound, the MIC [4] was 16 µg/mL (≈ 30.5 µM), the PI [5] was 2 and the MIC [6] was 8 µg/mL (≈ 15.3 µM). For the same compound, the MIC [7] was 10 µg/mL (≈ 19.1 µM), the MIC [8] was 0.625 µg/mL (≈ 1.19 µM) and the MIC [9] was 10 µg/mL (≈ 19.1 µM). For the same compound, the MIC [10] was 10 µg/mL (≈ 19.1 µM), the MIC [11] was 32 µg/mL (≈ 61 µM) and the MIC [12] was 10 µg/mL (≈ 19.1 µM). The MIC [13] was 16 µg/mL (≈ 30.5 µM), the “growth inhibition (GI)” value [14] was 95% and the MIC ([14]; Mycobacterium tuberculosis, H37Rv) was 1 µg/mL (≈ 1.91 µM).

— ChEMBL document CHEMBL2417425, “Design and synthesis of positional isomers of 5 and 6-bromo-1-[(phenyl)sulfonyl]-2-[(4-nitrophenoxy)methyl]-1H-benzimidazoles as possible antimicrobial and antitubercular agents” (2013)
